Laboratory results: patent US20110269755A1, “COMPOSITIONS AND METHODS FOR TREATING VASCULAR, AUTOIMMUNE, AND INFLAMMATORY DISEASES” (Aspreva International Ltd., priority 2006, published 2011)
In brackets after ≈: the same amount, converted by molar mass. Entries after “also recorded” stand apart in the source; their conditions may differ.

What was measured:
[1] = following oral or intravenous administration; cited from earlier work
Ldlr−/− mice [2] = test: Atherosclerosis in Ldlr−/− mice on Western-type diet, plaque area at the aortic root, MMF alone; type: in vivo; conditions: for reduction of atherosclerosis (AS), percentage of aortic sinus occluded by plaque: 12 weeks
Source text: (§1) Additional secondary endpoints examined were plasma levels of cholesterol, HDL cholesterol, triglycerides, and phospholipids.

allograft survival = conditions: mice; cited from earlier work
Ldlr−/− mice [3] = test: Serum/plasma lipid levels in Ldlr−/− mice on Western-type diet, MMF alone; type: in vivo
Source text: as §1

[4] = cited from earlier work
[5] = system: antibody response to sheep red blood cells; conditions: mice; cited from earlier work
[6] = system: endothelial nitric oxide synthase (eNOS); conditions: in vitro, cited from earlier work

For `COc1c(C)c2c(c(O)c1C/C=C(\C)CCC(=O)OCCN1CCOCC1)C(=O)OC2` [MMF, morpholinoethyl E-6-(1,3-dihydro-4-hydroxy-6-methoxy-7-methyl-3-oxo-5-isobenzofuranyl)-4-methyl-4-hexenoate], the “metabolism to the active metabolite MPA” value [1] is listed as “rapidly and completely metabolized”, the “reduction of atherosclerosis (AS), percentage of aortic sinus occluded by plaque” value (Ldlr−/− mice [2]; MMF 6 mg/kg/day in diet, male Ldlr−/− mice) is listed as 18% and the “reduction of atherosclerosis (AS), percentage of aortic sinus occluded by plaque” value (Ldlr−/− mice [2]; MMF 15 mg/kg/day in diet, male Ldlr−/− mice) is listed as 30%. For the same compound, the “reduction of atherosclerosis (AS), percentage of aortic sinus occluded by plaque” value (Ldlr−/− mice [2]; MMF 30 mg/kg/day in diet, male Ldlr−/− mice) was 28%, the “reduction of atherosclerosis (AS), percentage of aortic sinus occluded by plaque” value (Ldlr−/− mice [2]; MMF 100 mg/kg/day in diet, male Ldlr−/− mice) was 64% and the “dose response of the reduction of atherosclerosis” value (Ldlr−/− mice [2]; MMF 6, 15, 30 and 100 mg/kg/day, male Ldlr−/− mice) was “dose-dependent”. The “effect on atherosclerosis / atheromatous plaques” value (Ldlr−/− mice [2]; MMF alone, doses lower than used for preventing organ rejection, Ldlr−/− mice) was “reduce atherosclerosis; also recorded: reduction of atheromatous plaques”, the “effective dose for in vivo prolongation of allograft survival” value (allograft survival) was “about 80 mg/kg/day” and the HDL cholesterol levels (Ldlr−/− mice [3]; Ldlr−/− mice) was “no effect”. For the same compound, the total cholesterol levels (Ldlr−/− mice [3]; Ldlr−/− mice) was “no effect”, the serum cholesterol levels (Ldlr−/− mice [3]; male Ldlr−/− mice) was “did not lower” and the serum phospholipid levels (Ldlr−/− mice [3]; male Ldlr−/− mice) was “lower; also recorded: decreases”. The serum triglyceride levels (Ldlr−/− mice [3]; male Ldlr−/− mice) was “lower; also recorded: decreases”, the solubility ([4]; in 5% dextrose solution) was 65.8 mg/mL (≈ 152 mM) and the solubility in water ([4]; water) was “insoluble”.

For `COc1c(C)c2c(c(O)c1C/C=C(\C)CCC(=O)O)C(=O)OC2` [MPA, mycophenolic acid], the “ED50 for inhibiting the antibody reaction” value [5] is listed as “about 33 mg/kg/day” and the “trend in aortic root lesions as a function of serum MPA levels (linear regression)” value (Ldlr−/− mice [2]; Ldlr−/− mice given MMF) is listed as “statistically significant decreasing trend”.

In the case of `CC[C@H](C)C(=O)O[C@H]1C[C@@H](C)C=C2C=C[C@H](C)[C@H](CC[C@@H]3C[C@@H](O)CC(=O)O3)[C@H]21` [lovastatin], the “upregulation of eNOS expression” value ([6]; cholesterol clamped conditions) is given as “almost fourfold” and the “downregulation of eNOS by oxidized LDL” value [6] is given as “completely prevent”.
